Laboratory results reported in paper PMC11362529, “Exploring the neuroprotective potential of Nrf2-pathway activators against annonacin toxicity” (Scientific Reports, 2024).

Legend:
Format in all cases: cell-based, human
LUHMES cells [1] = assay: Mitochondrial membrane potential (JC-1 probe); settings: CCCP 50 µM, positive control
Method: In PLO/FN-coated 24-well microplates, cells were simultaneously incubated with 20 nM of annonacin and the selected concentrations of Nrf2-pathway activators, in glucose-reduced medium, over the course of 24 h. After that, the medium was removed and cells were washed once with warm HBSS, followed by incubation with 5 µM JC-1 solution in HBSS, for 20 min at 37 °C. For the positive control, the mitochondrial oxidative phosphorylation uncoupler, CCCP, was used at a concentration of 50 µM. After the incubation period, cells were washed with HBSS, and fresh HBSS was added to keep the cells viable during live-image acquisition. Image acquisition was done on a fluorescence microscope Leica-DFC9000GTC (Leica, Frankfurt, Germany). Environmental conditions were kept steady at 37 °C with a 5% CO2 atmosphere during the entire acquisition time. Ten to fifteen images from different fields of view, dispersed across triplicates, were acquired with 200 × magnification (20 × objective, 10 × intermediate magnification), using the same image acquisition parameters for all conditions. The fluorescence of JC-1 monomers was captured on the green channel (λ Ex/Em = 475/519 nm) and the fluorescence of JC-1 aggregates was capture on the red channel (λ Ex/Em = 555/594 nm). Quantification of FI (fluorescence intensities) of JC-1 monomeric and aggregated forms was done using the ImageJ software (http://rsb.info.nih.gov/ij/, ImageJ bundled with 64-bit Java 8). Briefly, TIFF exported images were submitted to background subtraction using the rolling ball method with a radius of 50 pixels. Channel-specific thresholds were applied to all images to define the ROI (region of interest) and FI were measured as integrated density. Data were reported as the ratio between JC-1 aggregates and monomers, obtained by dividing the FI of the JC-1 aggregated form by the FI of the monomeric form.

LUHMES cells [2] = assay: Mitochondrial superoxide (MitoSOX / calcein AM); settings: 100 µM H2O2, 2 h, positive control
Method: As before, cells seeded on PLO/FN-coated 24-well microplates were treated for 48 h with 20 nM of annonacin and the selected concentrations of Nrf2-pathway activators, in glucose-reduced medium. After this period, the medium was removed, and the cells were washed once with warm HBSS before being simultaneously incubated with 0.5 µM of MitoSOX™ red (Thermo Fisher Scientific) and 1 µM of calcein AM for 30 min at 37 °C. Next, the cells were again washed with HBSS and fresh HBSS was added to maintain cell viability during live-image acquisition on a fluorescence microscope Leica-DFC9000GTC (Leica). The cells were kept under controlled environmental conditions, and similar image acquisition parameters were used for all images, as explained before. We acquired ten to fifteen images per condition, from different view fields across triplicates, with a 200 × magnification (20 × objective, 10 × intermediate magnification). Quantification of MitoSOX and calcein AM FI was performed using the ImageJ software. Briefly, TIFF exported images were submitted to background subtraction using the rolling ball method with a radius of 50 pixels. Channel-specific thresholds were applied to all images to define the ROI, and the FI were measured as integrated density and reported as arbitrary units (a. u.). The MitoSOX FI was normalized to cell viability estimated by calcein AM FI, to obtain a MitoSOX FI/calcein FI ratio. The average ratio of the different view fields per experimental condition was taken and reported as fold change relative to the control (DMSO-treated) condition.

LUHMES cells [3] = assay: Protective effects against annonacin toxicity, calcein viability assay; settings: with 20 nM annonacin, glucose-reduced medium, 48 h; 40 μM Ki 696–2, 1 μM HPP-D, 15 μM ezetimibe, 4 μM licochalcone A; most protective or highest non-toxic concentration for the others
Method: The calcein AM green dye (Thermo Fisher Scientific) was diluted in DMSO to obtain a 1 mM stock solution. The stock solution was further diluted in HBSS (Hanks' balanced salt solution), immediately before incubation, to achieve a final working concentration of 1 μM in the well. The medium was removed, the cells were washed once with warm HBSS, and 200 µl of calcein working solution was added to each well. For background correction, 200 µl of calcein working solution was added to a well without cells (background control). After 30 min of incubation at 37 °C, the calcein solution was removed and the cells were washed once with HBSS. Cells were lysed in a 200 µl volume of 1% Triton™ X-100 in PBS (phosphate buffered saline) and the lysate transferred to a 96‐well black plate for the readout. The fluorescence signal was measured on a FLUOstar® Omega plate reader (BMG LabTech, Ortenberg, Germany) at λ Ex/Em = 485/530 nm and data was analyzed with the MARS data analysis software (BMG LabTech). For background correction, we subtracted the background control signal from the measured values of all experimental conditions. Data were expressed as percentage of viability relative to the control (DMSO-treated) condition.
For pharmacological treatments, we acquired several previously described Nrf2-pathway activators: ezetimibe (Cayman), licochalcone A (MedChem Express, New Jersey, NJ, USA), bardoxolone methyl, saracatinib and PP2 (AbMole BioScience Inc., Houston, TX, USA). The enantiomers Ki 696–1 and Ki 696–2, and the compound HPP-D were kindly provided by Orion Pharma (Espoo, Finland). All compounds were dissolved in DMSO and stored in small aliquots at -80 °C to avoid freeze–thaw cycles. Compound general toxicity was determined on PLO/FN double-coated 48-well microplates as follows: after 4 days of differentiation, LUHMES cells were incubated with the different Nrf2-pathway activators at concentrations ranging from 1 nM to 100 µM, for 96 h. The cell viability was assessed by calcein assay on day 8 of differentiation. Non-toxic concentrations of the Nrf2-pathway activators were selected and used in the pharmacological treatments, in combination with 20 nM of annonacin, in glucose-reduced differentiation medium, over a period of 48 h, similar to an in vitro model reported before. The protective effects of Nrf2-pathway activators against annonacin toxicity were determined in terms of cell viability with the calcein assay.

LUHMES cells [4] = assay: Compound general toxicity, calcein viability assay; settings: 1 nM to 100 μM, 96 h, differentiation medium, calcein fluorescence
Method: We used LUHMES (lund human mesencephalic) cells derived from human embryonic ventral mesencephalic cells by conditional immortalization (Tet-off v-myc overexpression). Cells were grown in monolayer at 37 °C in a humidified atmosphere of 5% CO2, in 75 cm^2 tissue culture flasks coated with 0.05 µg/ml PLO (poly-L-ornithine). Cells were maintained in growth medium of DMEM/F12 (Sigma-Aldrich, St. Louis, MO, USA), supplemented with 1% N-2 supplement (Gibco, Thermo Fisher Scientific, Waltham, MA, USA) and 0.04 µg/ml basic fibroblast growth factor (PreproTech EC, Waltham, MA, USA), and routinely dissociated with trypsin–EDTA solution and subcultured when reaching 70% confluence to avoid overgrowth. […]
The calcein AM green dye (Thermo Fisher Scientific) was diluted in DMSO to obtain a 1 mM stock solution. […] Cells were lysed in a 200 µl volume of 1% Triton™ X-100 in PBS (phosphate buffered saline) and the lysate transferred to a 96‐well black plate for the readout. The fluorescence signal was measured on a FLUOstar® Omega plate reader (BMG LabTech, Ortenberg, Germany) at λ Ex/Em = 485/530 nm and data was analyzed with the MARS data analysis software (BMG LabTech). For background correction, we subtracted the background control signal from the measured values of all experimental conditions. Data were expressed as percentage of viability relative to the control (DMSO-treated) condition. […]

## N#CC(C#N)=NNc1cccc(Cl)c1 [CCCP]
LUHMES cells [1]
  mitochondrial membrane potential (JC-1 aggregates): drastically reduced the presence of JC-1 aggregates

## OO [H2O2]
LUHMES cells [2]
  MitoSOX fluorescence intensity: increased the MitoSOX fluorescence intensity

## CC(C)(C)n1nc(-c2ccc(Cl)cc2)c2c(N)ncnc21 [PP2]
LUHMES cells [3]
  reduction of annonacin toxicity: no statistical differences

## COC(=O)[C@]12CCC(C)(C)C[C@H]1[C@H]1C(=O)C=C3[C@@]4(C)C=C(C#N)C(=O)C(C)(C)[C@@H]4CC[C@@]3(C)[C@]1(C)CC2 [bardoxolone, bardoxolone methyl]
LUHMES cells [4]
  impact on viability of differentiated LUHMES neuronal cells (compound toxicity): extremely neurotoxic at concentrations above the nanomolar range

## CN1CCN(CCOc2cc(OC3CCOCC3)c3c(Nc4c(Cl)ccc5c4OCO5)ncnc3c2)CC1 [saracatinib]
LUHMES cells [3]
  reduction of annonacin toxicity: no statistical differences
